Consider 44 compounds from paper PMC12751012, “Nanoscale Direct-to-Biology Optimization and Structural Insights into Selective S. aureus TrmD Inhibitors” (Journal of Medicinal Chemistry, 2025).

For this assay, the target named is T1, S. aureus TrmD (Staphylococcus aureus, UniProt Q2FZ43).
T1 construct: made in house; host or cells: E. coli BL21
T1 sequence (Q2FZ43 1-245): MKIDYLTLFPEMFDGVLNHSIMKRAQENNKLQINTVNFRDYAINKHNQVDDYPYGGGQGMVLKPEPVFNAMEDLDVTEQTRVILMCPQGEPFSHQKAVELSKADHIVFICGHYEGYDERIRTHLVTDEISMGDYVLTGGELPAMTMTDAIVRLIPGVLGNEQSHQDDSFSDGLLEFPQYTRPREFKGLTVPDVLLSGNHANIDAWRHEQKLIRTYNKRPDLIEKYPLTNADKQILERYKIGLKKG
Kind of assay: nanoSAR direct-to-biology FP displacement screening of crude triazoles. The assay is classed as binding. The following applies: crude triazole at 1 μM, assuming full conversion; 500 nM TrmD, 10 nM tracer 4; read-out: % displaced tracer. In a few lines:
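S. aureus TrmD (500 nM) with tracer 4 (10 nM) in Tris/NaCl/MgCl2/glycerol buffer, pH 7.5, was challenged with unpurified triazoles from in situ CuAAC of alkyne 7 with a 320-member azide library.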

In the case of `COC(=O)c1csc(Cn2cc(-c3c[nH]c4nc[nH]c(=O)c34)nn2)n1` [Compound 03G08, S1C(=NC(C(=O)OC)=C1)CN2N=NC(C=3C=4C(=O)NC=NC4NC3)=C2], the inhibition at 1 µM turned out to be 10%.

For `Cc1cncc(CCn2cc(-c3c[nH]c4nc[nH]c(=O)c34)nn2)n1` [Compound 04C01, O=C1NC=NC=2NC=C(C=3N=NN(C3)CCc4nc(cnc4)C)C12], the inhibition at 1 µM turned out to be 69%.

On to `C[C@@H](n1cc(-c2c[nH]c3nc[nH]c(=O)c23)nn1)C12CC(CO1)C2` [Compound 01F11, O=C1NC=NC=2NC=C(C=3N=NN(C3)[C@@H](C45OCC(C4)C5)C)C12], for which the inhibition at 1 µM stood at 26%.

Regarding `CS(=O)(=O)NCCn1cc(-c2c[nH]c3nc[nH]c(=O)c23)nn1` [Compound 01F03, S(=O)(=O)(NCCN1N=NC(C=2C=3C(=O)NC=NC3NC2)=C1)C], the inhibition at 1 µM turned out to be 62%.

Take `O=c1[nH]cnc2[nH]cc(-c3cn(C[C@@H]4CCCCC4(F)F)nn3)c12` [Compound 04H03, F[C@@]1(F)[C@H](CN2N=NC(C=3C=4C(=O)NC=NC4NC3)=C2)CCCC1]: the inhibition at 1 µM worked out at 78%.

`CN(C)c1cccc(OCCCn2cc(-c3c[nH]c4nc[nH]c(=O)c34)nn2)c1` [Compound 03E12, O=C1NC=NC=2NC=C(C=3N=NN(C3)CCCOc4cc(N(C)C)ccc4)C12]: the inhibition at 1 µM was 80%.

Regarding `O=c1[nH]cnc2[nH]cc(-c3cn(-c4cccc5cnccc45)nn3)c12` [Compound 01D05, O=C1NC=NC=2NC=C(C=3N=NN(c4c5c(cncc5)ccc4)C3)C12], the inhibition at 1 µM came to 16%.

Regarding `N[C@H]1C[C@@H](n2cc(-c3c[nH]c4nc[nH]c(=O)c34)nn2)C1` [Compound 02G12, O=C1NC=NC=2NC=C(C=3N=NN(C3)[C@@H]4C[C@H]([NH3+])C4)C12], the inhibition at 1 µM was determined as 31%.

`NC(=O)c1cc(-n2cc(-c3c[nH]c4nc[nH]c(=O)c34)nn2)ccn1` [Compound 01F05, O=C(N)c1nccc(N2N=NC(C=3C=4C(=O)NC=NC4NC3)=C2)c1]: the inhibition at 1 µM turned out to be 16%.

Consider `O=c1[nH]cnc2[nH]cc(-c3cn(-c4cccc(Cl)c4-c4nnn[nH]4)nn3)c12` [Compound 02G02, Clc1c(c(N2N=NC(C=3C=4C(=O)NC=NC4NC3)=C2)ccc1)C=5[N-]N=NN5], for which the inhibition at 1 µM stood at 15%.

For the compound `O=c1[nH]cnc2[nH]cc(-c3cn(C[C@H](O)Cc4cccc(F)c4)nn3)c12` [Compound 02H06, Fc1cc(ccc1)C[C@@H](O)CN2N=NC(C=3C=4C(=O)NC=NC4NC3)=C2], the inhibition at 1 µM stood at 27%.

For the compound `O=c1[nH]cnc2[nH]cc(-c3cn(-c4ccc5c(c4)CCO5)nn3)c12` [Compound 01B03, O=C1NC=NC=2NC=C(C=3N=NN(c4cc5c(OCC5)cc4)C3)C12], the inhibition at 1 µM came out at 52%.

Regarding `O=c1[nH]cnc2[nH]cc(-c3cn(CCCN4CCC(C(F)(F)F)CC4)nn3)c12` [Compound 02D01, FC(F)(F)[C@@H]1CC[N@H+](CC1)CCCN2N=NC(C=3C=4C(=O)NC=NC4NC3)=C2], the inhibition at 1 µM amounted to 23%.

Take `N#Cc1ccc(Cn2cc(-c3c[nH]c4nc[nH]c(=O)c34)nn2)c(F)c1` [Compound 01A01, Fc1c(ccc(C#N)c1)CN2N=NC(C=3C=4C(=O)NC=NC4NC3)=C2]: the inhibition at 1 µM was 12%.

Take `O=c1[nH]cnc2[nH]cc(-c3cn(Cc4cc(C(F)F)on4)nn3)c12` [Compound 01G06, FC(F)C=1ON=C(C1)CN2N=NC(C=3C=4C(=O)NC=NC4NC3)=C2]: the inhibition at 1 µM was found to be 38%.

Turning to `COC[C@H](O)Cn1cc(-c2c[nH]c3nc[nH]c(=O)c23)nn1` [Compound 02G06, O=C1NC=NC=2NC=C(C=3N=NN(C3)C[C@@H](O)COC)C12], the inhibition at 1 µM came to 13%.

For the compound `O=c1[nH]cnc2[nH]cc(-c3cn(Cc4cccc(Cl)c4)nn3)c12` [Compound 03D11, Clc1cc(ccc1)CN2N=NC(C=3C=4C(=O)NC=NC4NC3)=C2], the inhibition at 1 µM was 75%.

Turning to `O=c1[nH]cnc2[nH]cc(-c3cn(CCc4c[nH]c5ccccc45)nn3)c12` [Compound 02C02, O=C1NC=NC=2NC=C(C=3N=NN(C3)CCC=4c5c(NC4)cccc5)C12], the inhibition at 1 µM turned out to be 56%.

As to `C[C@H](c1ccc(Cl)cc1)n1cc(-c2c[nH]c3nc[nH]c(=O)c23)nn1` [Compound 02H11, Clc1ccc(cc1)[C@H](N2N=NC(C=3C=4C(=O)NC=NC4NC3)=C2)C], the inhibition at 1 µM stood at 41%.

As for `C[C@H](c1ccc(F)cc1Cl)n1cc(-c2c[nH]c3nc[nH]c(=O)c23)nn1` [Compound 01G11, Clc1c(ccc(F)c1)[C@H](N2N=NC(C=3C=4C(=O)NC=NC4NC3)=C2)C], the inhibition at 1 µM stood at 56%.

For the compound `O=c1[nH]cnc2[nH]cc(-c3cn(Cc4cnns4)nn3)c12` [Compound 03G02, S1N=NC=C1CN2N=NC(C=3C=4C(=O)NC=NC4NC3)=C2], the inhibition at 1 µM stood at 73%.

Take `CC(C)CSCCCn1cc(-c2c[nH]c3nc[nH]c(=O)c23)nn1` [Compound 02A03, S(CC(C)C)CCCN1N=NC(C=2C=3C(=O)NC=NC3NC2)=C1]: the inhibition at 1 µM is 35%.

Consider `O=c1[nH]cnc2[nH]cc(-c3cn(CCN4CCOCC4)nn3)c12` [Compound 01E07, O=C1NC=NC=2NC=C(C=3N=NN(C3)CC[NH+]4CCOCC4)C12], for which the inhibition at 1 µM was determined as 34%.

As to `COC(=O)c1sccc1-n1cc(-c2c[nH]c3nc[nH]c(=O)c23)nn1` [Compound 01D11, S1C(C(=O)OC)=C(N2N=NC(C=3C=4C(=O)NC=NC4NC3)=C2)C=C1], the inhibition at 1 µM came to 21%.

Consider `O=c1[nH]cnc2[nH]cc(-c3cn(-c4ccc(OC(F)(F)F)c(Cl)c4)nn3)c12` [Compound 01B11, Clc1c(OC(F)(F)F)ccc(N2N=NC(C=3C=4C(=O)NC=NC4NC3)=C2)c1], for which the inhibition at 1 µM was 16%.

In the case of `O=c1[nH]cnc2[nH]cc(-c3cn(CCN4CCCC4)nn3)c12` [Compound 01A04, O=C1NC=NC=2NC=C(C=3N=NN(C3)CC[NH+]4CCCC4)C12], the inhibition at 1 µM is 22%.

Consider `Cc1nc(C)c(Cn2cc(-c3c[nH]c4nc[nH]c(=O)c34)nn2)o1` [Compound 03B08, O=C1NC=NC=2NC=C(C=3N=NN(C3)CC=4OC(=NC4C)C)C12], for which the inhibition at 1 µM came to 50%.

Take `O=c1[nH]cnc2[nH]cc(-c3cn(CCCCF)nn3)c12` [Compound 01B09, FCCCCN1N=NC(C=2C=3C(=O)NC=NC3NC2)=C1]: the inhibition at 1 µM was 19%.

Regarding `NCCCCCCn1cc(-c2c[nH]c3nc[nH]c(=O)c23)nn1` [Compound 03H09, O=C1NC=NC=2NC=C(C=3N=NN(C3)CCCCCC[NH3+])C12], the inhibition at 1 µM turned out to be 50%.

With `O=c1[nH]cnc2[nH]cc(-c3cn(-c4ccccc4-c4ccccc4)nn3)c12` [Compound 01E12, O=C1NC=NC=2NC=C(C=3N=NN(c4c(c5ccccc5)cccc4)C3)C12], the inhibition at 1 µM is 34%.

For the compound `CCOP(=O)(CCCn1cc(-c2c[nH]c3nc[nH]c(=O)c23)nn1)OCC` [Compound 01H12, P(=O)(OCC)(OCC)CCCN1N=NC(C=2C=3C(=O)NC=NC3NC2)=C1], the inhibition at 1 µM was 33%.

Take `CC(C)(C)OC(=O)NC[C@@]1(Cn2cc(-c3c[nH]c4nc[nH]c(=O)c34)nn2)CC12CCC2` [Compound 02E10, O=C(OC(C)(C)C)NC[C@@]1(C2(C1)CCC2)CN3N=NC(C=4C=5C(=O)NC=NC5NC4)=C3]: the inhibition at 1 µM stood at 23%.

For `N[C@H]1CC[C@H](n2cc(-c3c[nH]c4nc[nH]c(=O)c34)nn2)CC1` [Compound 02D09, O=C1NC=NC=2NC=C(C=3N=NN(C3)[C@@H]4CC[C@@H]([NH3+])CC4)C12], the inhibition at 1 µM was found to be 21%.

With `Cc1c[nH]nc1Cn1cc(-c2c[nH]c3nc[nH]c(=O)c23)nn1` [Compound 04G01, O=C1NC=NC=2NC=C(C=3N=NN(C3)CC4=NNC=C4C)C12], the inhibition at 1 µM worked out at 87%.

Turning to `CC(CO)(CO)Cn1cc(-c2c[nH]c3nc[nH]c(=O)c23)nn1` [Compound 03B02, O=C1NC=NC=2NC=C(C=3N=NN(C3)CC(CO)(CO)C)C12], the inhibition at 1 µM worked out at 67%.

As to `COc1cccc(OC)c1Cn1cc(-c2c[nH]c3nc[nH]c(=O)c23)nn1` [Compound 02D12, O=C1NC=NC=2NC=C(C=3N=NN(C3)Cc4c(OC)cccc4OC)C12], the inhibition at 1 µM turned out to be 18%.

`C[C@@H]1CNC[C@H]1n1cc(-c2c[nH]c3nc[nH]c(=O)c23)nn1` [Compound 03B12, O=C1NC=NC=2NC=C(C=3N=NN(C3)[C@H]4[C@@H](C[NH2+]C4)C)C12]: the inhibition at 1 µM came out at 19%.

For the compound `O=c1[nH]cnc2[nH]cc(-c3cn(CC[C@@H]4CCCC4(F)F)nn3)c12` [Compound 02D11, F[C@@]1(F)[C@H](CCN2N=NC(C=3C=4C(=O)NC=NC4NC3)=C2)CCC1], the inhibition at 1 µM stood at 75%.

For the compound `C[C@@H](C(=O)N1CCCC1)n1cc(-c2c[nH]c3nc[nH]c(=O)c23)nn1` [Compound 02E11, O=C1NC=NC=2NC=C(C=3N=NN(C3)[C@H](C(=O)N4CCCC4)C)C12], the inhibition at 1 µM came to 20%.

`O=c1[nH]cnc2[nH]cc(-c3cn(CC(F)(F)c4ccccc4)nn3)c12` [Compound 02H05, FC(F)(c1ccccc1)CN2N=NC(C=3C=4C(=O)NC=NC4NC3)=C2]: the inhibition at 1 µM is 46%.

Regarding `CNC(=O)CCn1cc(-c2c[nH]c3nc[nH]c(=O)c23)nn1` [Compound 02H01, O=C1NC=NC=2NC=C(C=3N=NN(C3)CCC(=O)NC)C12], the inhibition at 1 µM turned out to be 21%.

As to `Cn1cc(Cn2cc(-c3c[nH]c4nc[nH]c(=O)c34)nn2)cn1` [Compound 01F04, O=C1NC=NC=2NC=C(C=3N=NN(C3)CC=4C=NN(C4)C)C12], the inhibition at 1 µM turned out to be 57%.

For `O=c1[nH]cnc2[nH]cc(-c3cn(-c4ccccc4)nn3)c12` [Compound 04F04, O=C1NC=NC=2NC=C(C=3N=NN(c4ccccc4)C3)C12], the inhibition at 1 µM is 33%.

`O=c1[nH]cnc2[nH]cc(-c3cn(-c4nccs4)nn3)c12` [Compound 02D03, S1C(=NC=C1)N2N=NC(C=3C=4C(=O)NC=NC4NC3)=C2]: the inhibition at 1 µM was determined as 7%.
